Data reported in article PMC6445163, “Design, synthesis, and evaluation of novel 2-phenylpropionic acid derivatives as dual COX inhibitory-antibacterial agents” (Journal of Enzyme Inhibition and Medicinal Chemistry, 2017).
Read-outs that look alike come from different tables or passages of the source. Marks after values point to notes of the source that are not given here.

Legend:
COX-1 = target: T1, COX-1 (Ovis aries, UniProt P05979); test: enzyme kinetics (Lineweaver-Burk), arachidonic acid substrate; assay type: biochemical; conditions: for mode of inhibition: Lineweaver-Burk plot analysis; for Ki: secondary plot of slope versus inhibitor concentration, read-out: Ki (steady-state inhibition constant)
T1 construct: purchased Biovision K548-100
T1 sequence (P05979 25-600): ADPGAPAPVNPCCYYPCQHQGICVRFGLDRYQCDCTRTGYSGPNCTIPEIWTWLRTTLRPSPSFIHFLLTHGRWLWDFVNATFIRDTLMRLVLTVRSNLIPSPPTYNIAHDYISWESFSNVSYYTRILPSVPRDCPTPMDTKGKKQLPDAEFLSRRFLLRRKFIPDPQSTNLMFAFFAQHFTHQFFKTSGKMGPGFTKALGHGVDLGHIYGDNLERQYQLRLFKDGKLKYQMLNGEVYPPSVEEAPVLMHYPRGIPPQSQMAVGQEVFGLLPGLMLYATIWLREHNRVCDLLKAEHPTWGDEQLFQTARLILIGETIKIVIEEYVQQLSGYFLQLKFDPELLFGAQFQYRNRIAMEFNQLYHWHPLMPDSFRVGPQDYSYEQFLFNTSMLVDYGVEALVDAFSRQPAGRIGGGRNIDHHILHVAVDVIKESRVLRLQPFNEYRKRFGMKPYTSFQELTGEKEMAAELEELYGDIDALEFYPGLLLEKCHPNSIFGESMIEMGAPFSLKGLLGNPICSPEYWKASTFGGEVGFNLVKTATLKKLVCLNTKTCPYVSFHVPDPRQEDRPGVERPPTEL
Procedure: The mode of inhibition was determined by following the Lineweaver–Burk double reciprocal plot analysis of the data and calculated as per the Michaelis–Menten kinetics. To understand the possible mode of action, Km and Vmax were also calculated. The slopes of the Lineweaver–Burk plots were plotted versus the inhibitor concentration, and the Ki values were determined from the x-axis intercept as inhibition constant − Ki. […] The kinetic parameters of this study were determined based on Michaelis–Menten equation followed by a Lineweaver–Burk double reciprocal analysis of data set regarding […] versus 1/[S] plot.

MTT cytotoxicity test = conditions: mouse, NIH/3T3 mouse embryonic fibroblast cells
Procedure: (§1) NIH/3T3 cells were incubated according to the supplier’s recommendations. NIH/3T3 cells were seeded at 1 × 10^4 cells into each well of 96-well plates. MTT assay was performed as previously described[51]^,[52].
(§2) There are a number of requirements to be fulfilled for successful new drug development. […] This assay is based upon the reduction of yellow MTT dye by metabolically active eukaryotic and prokaryotic cells to form the purple formazan product. The assay is generally used to examine cell viability and to estimate cell culture growth[66]^,[67].

[1] = test system: NIH/3T3 mouse embryonic fibroblast cell line; test: MTT cytotoxicity test
Procedure: as §1, §2

[2] = test system: Salmonella typhimurium TA98 (frameshift mutations); assay type: cell-based; conditions: for mutagenicity classification against TA98: presence/absence of metabolic activation (S9)
Procedure: (§3) Salmonella typhimurium strains, TA98 (frameshift mutations) and TA100 (base-pair substitutions), are used in this assay. Concentration range of the compounds was between […] and 5000 µg/mL according to the previous guidelines. Compounds were prepared in six different concentrations (5, 2.5, 1.25, 0.625, 0.3125 and 0.156 mg/mL) in DMSO. Mutagenic potential was determined in absence and presence of Aroclor™-1254 induced male Sprague–Dawley rat liver microsomal enzyme (S9) mix (Xenometrix AG, Switzerland). Positive controls without S9 mix were 2-Nitrofluorene (2 µg/mL) and 4-nitroquinoline N-oxide (0.1 µg/mL) whereas 1 and 2.5 µg/mL of 2-aminoanthracene solutions were used as positive controls with S9 against TA 98 and TA100, respectively. Solvent control was prepared with 4% DMSO. At the end of the experiment, revertant bacteria dropped the pH of solution and indicator medium color was changed to yellow. Yellow wells were counted as positive and compared with the negative control. Fold induction over the negative control and fold induction over the baseline were calculated. Fold induction over the negative control is the ratio of the mean number of positive wells for the dose concentration divided by the mean number of positive wells for the zero dose (negative) control. Fold induction over the baseline is the ratio of the mean number of positive wells for the dose concentration divided by zero dose baseline. The zero dose baseline is obtained by adding one standard deviation to the mean number of positive wells of the zero dose control. Mutagenicity was determined according to the criteria from previous studies[52]^,[56]. For a value ≤3 and significant increases between two and three-fold the baselines were classified as a weak mutagen, and increases ≥ three-fold the baselines were classified as a mutagen. […] As a rule, at least two adjacent doses with significant increases or a significant increase at the highest dose level should be observed for a mutagenic compound. All doses were compared according to Student’s t-test at p < .05 for statistical significance.
(§4) Ames assay was performed to investigate the genotoxicity of compounds 6h and 6l.

[3] = test system: Salmonella typhimurium TA100 (base-pair substitutions); test: Ames MPF mutagenicity assay, TA100; assay type: cell-based; conditions: for mutagenicity classification against TA100: presence or absence of metabolic activation (S9)
Procedure: as §3, §4

Row | SMILES | Vmax value of the competitive inhibition (COX-1) [nmol/min/mg protein] | mode of inhibition (COX-1) | Ki (COX-1) [µM] | IC50 (MTT cytotoxicity test) [µM] | fold by which IC50 against COX enzymes is lower than IC50 against NIH/3T3 cells [1] | Revertants fold increase (over baseline) TA 98 S9− ([2]; 0.156 mg/mL) | Revertants fold increase (over baseline) TA 98 S9+ ([2]; 0.3125 mg/mL) | Revertants fold increase (over baseline) TA 98 S9− ([2]; 0.3125 mg/mL) | Revertants fold increase (over baseline) TA 98 S9+ ([2]; 0.625 mg/mL) | Revertants fold increase (over baseline) TA 98 S9− ([2]; 0.625 mg/mL) | Revertants fold increase (over baseline) TA 98 S9+ ([2]; 1.25 mg/mL) | Revertants fold increase (over baseline) TA 98 S9− ([2]; 1.25 mg/mL) | Revertants fold increase (over baseline) TA 98 S9+ ([2]; 2.5 mg/mL) | Revertants fold increase (over baseline) TA 98 S9− ([2]; 2.5 mg/mL) | Revertants fold increase (over baseline) TA 98 S9+ ([2]; 5 mg/mL) | Revertants fold increase (over baseline) TA 98 S9− ([2]; 5 mg/mL) | mutagenicity classification against TA98 [2] | Revertants fold increase (over baseline) TA 100 S9+ ([3]; 0.156 mg/mL) | Revertants fold increase (over baseline) TA 100 S9+ ([3]; 0.3125 mg/mL) | Revertants fold increase (over baseline) TA 100 S9− ([3]; 0.3125 mg/mL) | other results
1 | COc1ccc2sc(SCc3ccc(C(C)C(=O)O)cc3)nc2c1 (centres unmarked) [Compound 6h, 2-(4-(((5-Methoxybenzo[d]thiazol-2-yl)thio)methyl)phenyl)propanoic acid] | 0.830 ± 0.011 | competitive | 2.07 | ≥ 1000 | about 500 fold | 0.56 | 0.52 | 0.56 | 0.70 | 0.60 | 0.17 | 0.73 | 1.05 | 0.22^a | 0.87 | 0.17^a | non-mutagenic | 0.60 | 0.50 | 0.52 | Revertants fold increase (over baseline) TA 100 S9+ ([3]; 0.625 mg/mL): 0.20; Revertants fold increase (over baseline) TA 100 S9− ([3]; 0.625 mg/mL): 0.70; Revertants fold increase (over baseline) TA 100 S9+ ([3]; 1.25 mg/mL): 0.25; Revertants fold increase (over baseline) TA 100 S9− ([3]; 1.25 mg/mL): 0.17; Revertants fold increase (over baseline) TA 100 S9+ ([3]; 2.5 mg/mL): 0.25; Revertants fold increase (over baseline) TA 100 S9− ([3]; 2.5 mg/mL): 1.05; Revertants fold increase (over baseline) TA 100 S9+ ([3]; 5 mg/mL): 0.20; Revertants fold increase (over baseline) TA 100 S9− ([3]; 5 mg/mL): 0.87; mutagenicity classification against TA100 [3]: did not show any mutagenicity; melting point: 166.5 to 168.2 °C
2 | COc1ccc2[nH]c(SCc3ccc(C(C)C(=O)O)cc3)nc2c1 (centres unmarked) [Compound 6l, 2-(4-(((5-Methoxy-1H-benzo[d]imidazol-2-yl)thio)methyl)phenyl)propanoic acid] | 0.669 ± 0.003 | competitive | 1.7 | ≥ 1000 | about 500 fold | 0.57 | 0.50 | 0.31^a | 0.75 | 0.61 | 0.08^a | 0.04a | 0.00^a | 0.00^a | 0.00^a | 0.04^a | non-mutagenic | 0.74 | 0.52 | 0.27^a | Revertants fold increase (over baseline) TA 98 S9+ ([2]; 0.156 mg/mL): 0.17^a; Revertants fold increase (over baseline) TA 100 S9− ([3]; 0.156 mg/mL): 0.53a; Revertants fold increase (over baseline) TA 100 S9+ ([3]; 0.625 mg/mL): 0.52; Revertants fold increase (over baseline) TA 100 S9− ([3]; 0.625 mg/mL): 0.13^a; Revertants fold increase (over baseline) TA 100 S9+ ([3]; 1.25 mg/mL): 0.00^a; Revertants fold increase (over baseline) TA 100 S9− ([3]; 1.25 mg/mL): 0.13^a; Revertants fold increase (over baseline) TA 100 S9+ ([3]; 2.5 mg/mL): 0.00^a; Revertants fold increase (over baseline) TA 100 S9− ([3]; 2.5 mg/mL): 0.20^a; Revertants fold increase (over baseline) TA 100 S9+ ([3]; 5 mg/mL): 0.00^a; Revertants fold increase (over baseline) TA 100 S9− ([3]; 5 mg/mL): 0.00^a; mutagenicity classification against TA100 [3]: non-mutagenic; melting point: 175.6 to 178.4 °C
